Results taken from patent US6476051B2, “Antipsychotic heterocycle compounds” (Bristol-Myers Squibb Company, priority 1999, dated 2002).
Counter-ions that a name gives are not always drawn. Like-named read-outs stand apart in the source and are kept apart here.

Experiments:
[1] = biological target: T1, recombinant human dopamine D2L receptors (Homo sapiens, UniProt P14416); test: Dopamine binding protocol ([3H]-spiperone binding, HEK-D2L cell membranes)
T1 construct: expressed in transfected cells; host or cells: HEK-293 (HEK-D2L cells), membrane homogenates
Protocol: Like many clinically effective antipsychotic agents, the compounds of Formula I also are antagonists at the human D2L receptor as determined by [^3H]-spiperone binding studies using human D2L receptors stably expressed in HEK-293 cells.
HEK-293 cells that stably express recombinant human dopamine D2L receptors (HEK-D2L cells) were grown at 37° C. in 5% CO2 as a monolayer in medium consisting of EMEM supplemented with 10% fetal bovine serum and G418 sulfate (500 μg/ml). To prepare membranes for radioligand binding experiments, cells were rinsed twice with phosphate-buffered saline (138 mM NaCl, 4.1 mM KCl, 5.1 mM Na2PO4, 1.5 mM […] 11.1 mM glucose, pH 7.4), and incubated for 5-10 min. at 4° C. in hypotonic lysis buffer consisting of 10 mM Tris (pH 7.4) and 5 mM EDTA. Cells were transferred from plates to polypropylene tubes (16×100 mm), homogenized and centrifuged at 32,000×g for 20 min. Following centrifugation, pellets were resuspended by homogenization in buffer consisting of 50 mM Tris (pH 7.7 at 25° C.) and 1 mM EDTA. Homogenates were stored at −80° C. until needed. On the day of an experiment, homogenates were thawed then centrifuged at 32,000×g for 20 min. Following centrifugation, supernatants were discarded and pellets were resuspended in assay buffer consisting of 50 mM Tris (pH 7.4 at 25° C.), 1 mM EDTA and 6 mM MgCl2. Membrane homogenates (˜5 μg) were incubated with 150 pM [^3H]-spiperone (Amersham Life Science) and increasing concentrations of test compounds for 1.5 hours at 22° C. in a total volume of 400 μl. Reactions were stopped by addition of ice-cold assay buffer and filtration over glass fiber filters (Whatman GFB, pre-soaked in 0.05% polyethylenimine) using a microtitre format Brandel cell harvester. Filters were washed with 3 ml of ice-cold assay buffer. Non-specific binding was defined with 2 μM (+)butaclamol. Ki values were calculated using the method of Cheng and Prusoff (1973). Protein concentrations were determined by the method of Bradford (1976) with BSA as a standard.
Test data IC50 values lower than 250 nM are considered to reflect affinity for dopamine D2L receptors.

[2] = biological target: T2, human serotonin transporters (Homo sapiens, UniProt P31645); test: Serotonin transporter binding assay ([3H]-citalopram binding, HEK-hSERT cell membranes)
T2 construct: expressed in transfected cells; host or cells: HEK-293 (HEK-hSERT cells), membrane homogenates
Description: The compounds of Formula I bind potently to the human 5-HT transporter and inhibit the re-uptake of endogenous serotonin. Selective serotonin reuptake inhibitors (SSRIs) are effective for the treatment of mental depression and have been reported to be useful for treating chronic pain (see: R. W. Fuller, Pharmacologic Modification of Serotonergic Function: Drugs for the Study and Treatment of Psychiatric and Other Disorders,” J. Clin. Psychiatry, 47:4 (Suppl.) April 1986, pp. 4-8). Compounds of the present invention are also envisioned to be useful for treating psychosis, acute mania, mild anxiety states or depression with secondary psychotic episodes. The present compounds are also envisioned to be useful in treating obsessive-compulsive disorders, feeding disorders, anxiety disorders and panic disorders.
HEK-293 cells that stably express human serotonin transporters (HEK-hSERT cells) were grown at 37° C. in 5% CO2 as a monolayer in medium consisting of EMEM supplemented with 10% fetal bovine serum and G418 sulfate (500 μg/ml). To prepare membranes for radioligand binding experiments, cells were rinsed twice with phosphate-buffered saline (138 mM NaCl, 4.1 mM KCl, 5.1 mM Na2PO4, 1.5 mM […], 11.1 mM glucose, pH 7.4). Cells were transferred from plates to polypropylene tubes (16×100 mm), centrifuged at 1,200×g for 5 min and were frozen at −80° C. until assay. Following centrifugation, pellets were resuspended by homogenization in buffer consisting of 50 mM Tris (pH 7.7 at 25° C.), 120 mM NaCl and 5 mM KCl and then centrifuged at 32,000×g for 10 min. Following centrifugation, supernatants were discarded and pellets were resuspended in buffer consisting of 50 mM Tris (pH 7.4 at 25° C.), 150 mM NaCl and 5 mM KCl. Membrane homogenates (200 μl/plate) were incubated with 1 nM [^3H]-citalopram (specific activity=85 Ci/mmol) and increasing concentrations of test compounds for 1 hour at 25° C. in a total volume of 250 μl. The assay buffer consisted of 50 mM Tris (pH 7.4 at 25° C.), 120 mM NaCl and 5 mM KCl (pH 7.4 with conc. HCl). Plates were incubated for 1 hour at 25° C., then filtered through 0.5% PEI treated Whatman GF/B filters using a Brandel cell harvester. Filters were washed three times with 3 ml of ice-cold tris wash buffer. Non-specific binding was defined with 10 μM fluoxetine. Amount of radioligand bound in the presence and absence of competitor was analyzed by plotting (−)log drug concentration versus the amount of radioligand specifically bound. The midpoint of the displacement curve (IC50, nM), signifies the potency. Ki values were calculated using the method of Cheng and Prusoff (1973).
Substances which inhibit the re-uptake of serotonin are recognized to be effective antidepressants (Selective Serotonin Reuptake Inhibitors. Edited by J P Feighner and W F Boyer, Chichester, England. John Wiley & Sons, 1991, pp 89-108). Test data IC50 values lower than 250 nM are considered to reflect activity as an inhibitor of serotonin re-uptake.

T2 sequence (P31645 whole entry): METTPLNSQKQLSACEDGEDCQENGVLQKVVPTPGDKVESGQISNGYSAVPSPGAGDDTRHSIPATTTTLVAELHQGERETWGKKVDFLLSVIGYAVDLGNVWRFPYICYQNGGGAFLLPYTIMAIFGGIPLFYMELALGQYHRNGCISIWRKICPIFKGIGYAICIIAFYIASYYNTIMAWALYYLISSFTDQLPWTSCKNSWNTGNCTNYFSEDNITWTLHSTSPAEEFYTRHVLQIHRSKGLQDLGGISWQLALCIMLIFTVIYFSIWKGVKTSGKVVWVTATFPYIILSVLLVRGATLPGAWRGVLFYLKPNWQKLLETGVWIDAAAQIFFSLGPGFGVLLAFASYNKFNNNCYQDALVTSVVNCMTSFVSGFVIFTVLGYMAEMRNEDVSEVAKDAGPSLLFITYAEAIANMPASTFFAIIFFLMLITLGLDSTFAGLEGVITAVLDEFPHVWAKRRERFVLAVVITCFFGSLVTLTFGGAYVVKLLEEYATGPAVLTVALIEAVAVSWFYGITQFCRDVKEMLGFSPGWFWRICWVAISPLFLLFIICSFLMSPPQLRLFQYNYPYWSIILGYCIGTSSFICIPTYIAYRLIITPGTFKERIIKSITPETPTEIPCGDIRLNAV
T1 sequence (P14416 whole entry): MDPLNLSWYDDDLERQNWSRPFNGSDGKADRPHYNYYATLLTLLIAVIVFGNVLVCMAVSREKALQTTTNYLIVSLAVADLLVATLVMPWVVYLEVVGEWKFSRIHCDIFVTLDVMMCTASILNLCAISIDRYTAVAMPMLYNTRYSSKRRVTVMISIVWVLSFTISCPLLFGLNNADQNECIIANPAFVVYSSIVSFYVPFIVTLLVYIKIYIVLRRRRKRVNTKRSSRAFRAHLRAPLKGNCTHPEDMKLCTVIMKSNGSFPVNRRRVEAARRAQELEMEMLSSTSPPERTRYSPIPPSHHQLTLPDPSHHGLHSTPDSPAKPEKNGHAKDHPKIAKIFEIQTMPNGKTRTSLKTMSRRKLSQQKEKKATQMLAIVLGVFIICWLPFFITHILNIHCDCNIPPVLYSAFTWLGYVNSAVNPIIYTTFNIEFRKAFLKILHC

| SMILES | melting point [°C] | Ki [1] [nM] | Ki [2] [nM] | Ki ([1]; [3H]-spiperone, HEK-D2L membranes, read-out: dopamine D2L ligands with Ki) [nM] | Ki ([2]; [3H]-citalopram, HEK-hSERT membranes, read-out: inhibit the re-uptake of serotonin with Ki) [nM] |
| --- | --- | --- | --- | --- | --- |
| Cc1nc2cc(OCCCN3CC=C(c4c[nH]c5ccc(C#N)cc45)CC3)ccc2s1 (as salt: HCl) [Example 12, 5-{3-[4-(5-cyanoindol-3-yl)-1,2,5,6-tetrahydropyrid-1-yl]propoxy}-2-methylbenzothiazole] | 263 to 265 |  |  |  |  |
| Cc1nc2cc(OCCCN3CC=C(c4c[nH]c5ccc(Br)cc45)CC3)ccc2s1 [Example 36, 5-{3-[4-(5-bromoindol-3-yl)-1,2,5,6-tetrahydropyrid-1-yl]propoxy}-2-methylbenzothiazole] |  | < 100 | < 100 |  |  |
| Cc1nc2cc(OCCCCCN3CC=C(c4c[nH]c5cc(Br)ccc45)CC3)ccc2s1 [Example 27, 5-{5-[4-(6-bromoindol-3-yl)-1,2,5,6-tetrahydropyrid-1-yl]pentoxy}-2-methylbenzothiazole] |  | < 100 | < 100 |  |  |
| Cc1nc2cc(OCCCN3CC=C(c4c[nH]c5cc(Br)ccc45)CC3)ccc2s1 [Example 25, 5-{3-[4-(6-bromoindol-3-yl)-1,2,5,6-tetrahydropyrid-1-yl]propoxy}-2-methylbenzothiazole] |  | < 100 | < 100 |  |  |
| COc1ccc(OCCCN2CCC(c3c[nH]c4ccc(C#N)cc34)CC2)cc1 [Example 9, 3-{1-[3-(4-methoxyphenoxy)propyl]-4-piperidinyl}-5-cyanoindole] |  |  |  | < 100 | < 100 |
| Cc1nc2cc(OCCCCN3CC=C(c4c[nH]c5cc(Cl)ccc45)CC3)ccc2s1 [Example 23, 5-{4-[4-(6-chloroindol-3-yl)1,2,5,6-tetrahydropyrid-1-yl]butoxy}-2-methylbenzothiazole] |  | < 100 | < 100 |  |  |
| Cc1nc2cc(OCCCCCN3CC=C(c4c[nH]c5ccc(Cl)cc45)CC3)ccc2s1 [Example 21, 5-{5-[4-(5-chloroindol-3-yl)-1,2,5,6-tetrahydropyrid-1-yl]pentoxy}-2-methylbenzothiazole] |  | < 100 | < 100 |  |  |
| Cc1nc2cc(OCCCCCN3CC=C(c4c[nH]c5cccc(F)c45)CC3)ccc2s1 [Example 14, 5-{5-[4-(4-fluoroindol-3-yl)-1,2,5,6-tetrahydropyrid-1-yl]pentoxy}-2-methylbenzothiazole] |  | < 100 | < 100 |  |  |
| Cc1nc2cc(OCCCCN3CC=C(c4c[nH]c5ccc(F)cc45)CC3)ccc2s1 [Example 15, 5-{4-[4-(5-fluoroindol-3-yl)1,2,5,6-tetrahydropyrid-1-yl]butoxy}-2-methylbenzothiazole] |  | < 100 | < 100 |  |  |
| Cc1nc2cc(OCCCCN3CC=C(c4c[nH]c5c(Br)cccc45)CC3)ccc2s1 [Example 29, 5-{4-[4-(7-bromoindol-3-yl)1,2,5,6-tetrahydropyrid-1-yl]butoxy}-2-methylbenzothiazole] |  | < 100 | < 100 |  |  |
| COc1ccc2[nH]cc(C3=CCN(CCCCCOc4ccc5sc(C)nc5c4)CC3)c2c1 [Example 33, 5-{5-[4-(5-methoxyindol-3-yl)-1,2,5,6-tetrahydropyrid-1-yl]pentoxy}-2-methylbenzothiazole] |  | < 100 | < 100 |  |  |
| Cc1nc2cc(OCCCN3CC=C(c4c[nH]c5c(Br)cccc45)CC3)ccc2s1 [Example 28, 5-{3-[4-(7-bromoindol-3-yl)-1,2,5,6-tetrahydropyrid-1-yl]propoxy}-2-methylbenzothiazole] |  | < 100 | < 100 |  |  |
